Measured values taken from a melting point compilation (Tetko et al.; mined from patent text by program, amines drawn as free bases though some values may be those of a salt).

| SMILES | melting point [°C] |
| --- | --- |
| CC(O)CNc1nc(NCc2ccccc2N)c2ncn(C(C)C)c2n1 (racemic) | 175 to 179 |
| OCC1OC(n2cnc3c(Nn4cccc4)ncnc32)C(O)C1O (stereo not given) | 193 to 195 |
| CCN(CC)c1nc(C)cc(O)n1 | 131 to 132 |
| O=C(NN1CCCC1=O)C(O)=CC(=O)c1cc(Cc2ccc(F)cc2F)cn(Cc2ccc(F)cc2)c1=O | 87 to 88 |
| CCCC(C)(Oc1ccccc1C)C(=O)OC1CC(O)C=C2C=CC(C)C(CCC3CC(O)CC(=O)O3)C21 (mixture of isomers) | 161 to 163 |
| CN1C(C)(C)CC2(CC1(C)C)NC(=O)N(CC(O)COC(=O)CCCCC(=O)OCC(O)CN1C(=O)NC3(CC(C)(C)N(C)C(C)(C)C3)C1=O)C2=O (stereo not given) | 180 to 184 |
| CC(C)n1nc(-c2sc(NC(=O)c3ccc(CN(C)CCN(C)C)cc3)nc2-c2ccccc2)ccc1=O | 131 to 133 |
| CC(=O)OC1(C(C)=O)CCC2C3CCC4=CC(=O)CCC4(C)C3CCC21C (stereo not given) | 243 to 245 |
| N=C(NO)c1ccc2cc(O)c(O)cc2c1 | 238 to 243 |
| CCCCCCCCOc1ccc2c(c1OCCCCCCCC)C(=O)c1ccccc1C2=O | 91 to 94 |
| OC1CN(Cc2ccccc2)C1 | 64.5 to 65.5 |
| Cc1noc(C)c1Cn1cc(N2C(=O)CN(CCc3cccc(F)c3)C2=O)cn1 | 110 to 111 |
| Cc1cc(-c2nncc3c(Br)c(OCc4ncnn4C)nn23)no1 | 239 to 241 |
| CCCCC(C(=O)N1CCCCC1)c1ccc(C(=O)O)cc1 (stereo not given) | 142 |
| COc1cc(C#N)c(N=C(C)N(C)C)cc1OC | 94 to 96 |
| Cc1oc(-c2ccccc2)nc1CCOc1ccc(CC(C)(C(=O)O)n2ccc(Br)c2)cc1 (stereo not given) | 158 to 159 |
| CS(=O)(=O)OCCCC(c1ccccc1)c1ccccc1 | 85 to 88 |
| O=C1CNC(=O)N1CCNCc1ccc(CN2CCCCC2)o1 | 133 to 136 |
| CC(=O)OCC1=CC(=O)C=C2CCC3C4CCC(=O)C4(C)CCC3C21C (stereo not given) | 121 to 123 |
| COc1cc(NC(=O)Nc2ccc3c(c2)CCN(C(=O)Nc2ccc(OCCO)cc2Cl)C3)cc(OC)c1 | 105 to 110 |
| Nc1ccc2c(c1)C(=O)CC21CCCC1 | 125 |
| COc1ccc(C(=O)N2c3ccccc3C(n3c4ccccc4c4ccccc43)CC2CCCCCN(C)C)cc1OC (stereo not given) | 198 to 200 |
| CC(C)COC(=O)c1ccc2nc(N)n(S(=O)(=O)N(C)C)c2c1 | 197 to 198 |
| Cc1n[nH]c(CC#N)c1Oc1cc(Cl)cc(Cl)c1 | 150 to 152 |
| CCOC(=O)c1cc2c(C(=O)CN(Cc3ccccc3)C(C)CC(=O)OC)ccc(OCc3ccccc3)c2[nH]1 (stereo not given) | 120 to 123 |

| SMILES | melting point [°C] |
| --- | --- |
| CC(CNc1nc(N)nc2c1ncn2C1OC(CO)C(O)C1O)(c1ccccc1)c1ccccc1 (stereo not given) | 129 to 132 |
| O=C(C1CCN(S(=O)(=O)c2ccc(Br)cc2)CC1)N1CCN(c2ccncn2)CC1 | 171 to 174 |
| C[C@@H](Oc1cc(-c2cnn(C3CCNCC3)c2)cnc1N)c1c(Cl)ccc(F)c1Cl | 194 |
| CC(=O)NCOc1ccc(S(=O)(=O)N2C3CCC2CN(CC(=O)Nc2ccccc2C)C3)cc1 | 205 to 206 |
| CCC1(CC)C(=O)N(CCO)CC(C)(C)N1OC(C)(C)C#N | 80 to 82 |
| O=C(c1ccccc1)N1CC(O)C(O)C(O)C1CO (stereo not given) | 159 |
| O=C(Nc1cn2cc(Cl)ccc2n1)c1ccc(-n2cccn2)cc1 | 287 to 289 |
| CCOCc1nc2cnc3cc(Br)ccc3c2n1C[C@@H]1COC(C)(C)O1 | 90 to 91 |
| O=CNC1=CCc2cc(Cl)ccc21 | 155 |
| CS(=O)(=O)c1ccc(-n2cc(CO)nc2-c2ccc(Cl)cc2)cc1 | 205 to 208 |
| COC(=O)c1ccc(-c2ccc(NC(=O)c3ccc(OC)c(C#CCN(C)C)c3)cc2)cc1 | 234 to 237 |
| Nc1ccc(C(=O)OCCCN2CCOCC2)c(N)c1 | 96 |
| Oc1cc(-c2ncnc(C(F)F)c2Cl)c(F)cc1Cl | 141 to 143 |
| N[C@@H](Cc1cccc(OC(F)(F)C(F)F)c1)[C@H](O)c1ccnc(F)c1 (racemic) | 119 to 120 |
| COc1cccc(-n2c(-c3ccccc3)cc(=O)c(C)c2-c2ccccc2)c1 | 183 to 185 |
| CN(C)C(=O)C(C)(C)n1cc(C#N)c(-c2ccccc2)n1 | 116 to 119 |
| COc1cc2c(cc1OC)OCCC(C(=O)N1CCN(C(=O)c3cc(OC)c(OC)c(OC)c3)CC1)=C2 | 132 to 134 |
| COc1nc2cc(Cl)cc(C)c2nc1OC | 94 to 96 |
| Nc1c(-c2cc(Cl)ccc2O)c2c(Cl)c(Cl)ccc2[nH]c1=O | 263 to 265 |
| Nc1cc(C2COCCO2)ccn1 (stereo not given) | 123 to 126 |
| CCN(CC)C(=O)Cc1cc(-c2ccccc2)nc2ccccc12 | 86 |
| NS(=O)(=O)CCCSc1ccc2ncc(Cl)n2n1 | 136 to 137 |
| COc1ccc2[nH]c3c([N+](=O)[O-])ccc(Cl)c3c(=O)c2c1Cl | 251 to 253 |
| Cc1cccnc1NC(=O)OC(C)(C)C | 132 to 133 |
| CCCC(=O)NCc1cccc2c1CN(C1CCC(=O)NC1=O)C2=O (stereo not given) | 244 to 246 |
